Source: article PMC5218480 (PLoS ONE, 2017)

System: MV-4-11 cells
Assay: Gene expression microarray analysis (Affymetrix PrimeView) and GSEA
Format: cell-based, human
Design: RFU PODN (11730768_x_at) / Fold change /veh PODN (11730768_x_at) / RFU LINC00158 (11744669_a_at) / Fold change /veh LINC00158 (11744669_a_at) / RFU DUSP10 (11751237_a_at) / Fold change /veh DUSP10 (11751237_a_at) / RFU ID3 (11757404_x_at) / Fold change /veh ID3 (11757404_x_at) / RFU PLEKHG5 (11737974_s_at) / Fold change /veh PLEKHG5 (11737974_s_at) / RFU LRRC4B (11730491_at) / Fold change /veh LRRC4B (11730491_at) / RFU GIMAP4 (11747438_a_at) / Fold change /veh GIMAP4 (11747438_a_at) / RFU KRT8 (11758183_x_at) / Fold change /veh KRT8 (11758183_x_at) / RFU CNN1 (11734310_a_at) / Fold change /veh CNN1 (11734310_a_at) / RFU VPS37D (11726825_at) / Fold change /veh VPS37D (11726825_at) / RFU C10orf10 (11716522_x_at) / Fold change /veh C10orf10 (11716522_x_at) / RFU KIR2DL2 /// KIR2DL4 /// KIR2DL5A /// KIR2DL5B /// KIR2DS1 /// KIR2DS2 /// KIR2DS3 /// KIR2DS4 /// KIR3DL3 /// KIR3DL3 /// KIR3DS1 (11738374_at) / Fold change /veh KIR2DL2 /// KIR2DL4 /// KIR2DL5A /// KIR2DL5B /// KIR2DS1 /// KIR2DS2 /// KIR2DS3 /// KIR2DS4 /// KIR3DL3 /// KIR3DL3 /// KIR3DS1 (11738374_at) / RFU C1QL1 (11718748_at) / Fold change /veh C1QL1 (11718748_at) / RFU TMPRSS4 (11747572_a_at) / Fold change /veh TMPRSS4 (11747572_a_at) / RFU HAMP (11756126_x_at) / Fold change /veh HAMP (11756126_x_at) / RFU RNFT2 (11725882_a_at) / Fold change /veh RNFT2 (11725882_a_at) / RFU NR4A2 (11747474_a_at) / Fold change /veh NR4A2 (11747474_a_at) / RFU ABCC12 (11746883_a_at) / Fold change /veh ABCC12 (11746883_a_at) / RFU TMEM136 (11760407_x_at) / Fold change /veh TMEM136 (11760407_x_at) / RFU CLDN22 /// WWC2 (11732394_at) / Fold change /veh CLDN22 /// WWC2 (11732394_at) / RFU HLA-DPB1 (11760878_x_at) / Fold change /veh HLA-DPB1 (11760878_x_at) / RFU SPINT1 (11716480_a_at) / Fold change /veh SPINT1 (11716480_a_at) / RFU GAP43 (11754022_s_at) / Fold change /veh GAP43 (11754022_s_at) / RFU A4GNT (11735810_at) / Fold change /veh A4GNT (11735810_at) / RFU PRB3 (11715151_x_at) / Fold change /veh PRB3 (11715151_x_at) / RFU TUBB4B (11761932_at) / Fold change /veh TUBB4B (11761932_at) / RFU CAPN14 (11732068_a_at) / Fold change /veh CAPN14 (11732068_a_at) / RFU TMCC2 (11721928_a_at) / Fold change /veh TMCC2 (11721928_a_at) / RFU IRGQ (11745062_a_at) / Fold change /veh IRGQ (11745062_a_at) / RFU FAM174B (11720279_a_at) / Fold change /veh FAM174B (11720279_a_at) / RFU TMPRSS4 (11748680_a_at) / Fold change /veh TMPRSS4 (11748680_a_at) / RFU FAM212B (11763350_a_at) / Fold change /veh FAM212B (11763350_a_at) / RFU PLEKHG5 (11743358_a_at) / Fold change /veh PLEKHG5 (11743358_a_at) / RFU ZSCAN30 (11745921_a_at) / Fold change /veh ZSCAN30 (11745921_a_at) / RFU CMKLR1 (11741424_a_at) / Fold change /veh CMKLR1 (11741424_a_at) / RFU LOC101060620 /// MAPK8IP1 (11723275_at) / Fold change /veh LOC101060620 /// MAPK8IP1 (11723275_at) / RFU SPTSSB (11747773_x_at) / Fold change /veh SPTSSB (11747773_x_at) / RFU PRSS12 (11739890_at) / Fold change /veh PRSS12 (11739890_at) / RFU BIN1 (11741810_x_at) / Fold change /veh BIN1 (11741810_x_at) / RFU WNT11 (11732464_a_at) / Fold change /veh WNT11 (11732464_a_at) / RFU C10orf10 (11716521_a_at) / Fold change /veh C10orf10 (11716521_a_at) / RFU C5orf56 (11738089_at) / Fold change /veh C5orf56 (11738089_at) / RFU CYB561 (11721691_x_at) / Fold change /veh CYB561 (11721691_x_at) / RFU ANKRD19P (11752326_a_at) / Fold change /veh ANKRD19P (11752326_a_at) / RFU OR2T12 /// OR2T33 /// OR2T8 (11738714_s_at) / Fold change /veh OR2T12 /// OR2T33 /// OR2T8 (11738714_s_at) / RFU VCAN (11748164_a_at) / Fold change /veh VCAN (11748164_a_at) / RFU JSRP1 (11732532_at) / Fold change /veh JSRP1 (11732532_at) / RFU KRTAP10-11 (11738290_x_at) / Fold change /veh KRTAP10-11 (11738290_x_at) / RFU MYO3A (11730013_a_at) / Fold change /veh MYO3A (11730013_a_at) / RFU EBF3 (11725865_a_at) / Fold change /veh EBF3 (11725865_a_at) / RFU CAMK2N1 (11719241_x_at) / Fold change /veh CAMK2N1 (11719241_x_at) / RFU C5orf56 (11738088_a_at) / Fold change /veh C5orf56 (11738088_a_at) / RFU OLFML3 (11715873_a_at) / Fold change /veh OLFML3 (11715873_a_at) / RFU LOC100653217 /// NTM (11731650_a_at) / Fold change /veh LOC100653217 /// NTM (11731650_a_at) / RFU MAPK11 (11762145_a_at) / Fold change /veh MAPK11 (11762145_a_at) / RFU FIZ1 (11724087_x_at) / Fold change /veh FIZ1 (11724087_x_at) / RFU OASL (11726364_x_at) / Fold change /veh OASL (11726364_x_at) / RFU SOX15 (11748057_x_at) / Fold change /veh SOX15 (11748057_x_at) / RFU CD79A (11719716_a_at) / Fold change /veh CD79A (11719716_a_at) / RFU HIST1H1D (11736915_at) / Fold change /veh HIST1H1D (11736915_at) / RFU CASKIN2 (11723855_a_at) / Fold change /veh CASKIN2 (11723855_a_at) / RFU LOC730098 (11760151_x_at) / Fold change /veh LOC730098 (11760151_x_at) / RFU OR4N2 (11742367_at) / Fold change /veh OR4N2 (11742367_at) / RFU PRRT2 (11749266_a_at) / Fold change /veh PRRT2 (11749266_a_at) / RFU SNX32 (11753110_a_at) / Fold change /veh SNX32 (11753110_a_at) / RFU CDHR5 (11726645_a_at) / Fold change /veh CDHR5 (11726645_a_at) / RFU RCAN1 (11760418_a_at) / Fold change /veh RCAN1 (11760418_a_at) / RFU FAM167A (11723789_a_at) / Fold change /veh FAM167A (11723789_a_at) / RFU FAM26E (11764081_at) / Fold change /veh FAM26E (11764081_at) / RFU ISYNA1 (11749810_s_at) / Fold change /veh ISYNA1 (11749810_s_at) / RFU ACY1 (11761880_at) / Fold change /veh ACY1 (11761880_at) / RFU 11764098_at / Fold change /veh 11764098_at / RFU SAMD14 (11745864_x_at) / Fold change /veh SAMD14 (11745864_x_at) / RFU NPB (11741838_a_at) / Fold change /veh NPB (11741838_a_at) / RFU TMPRSS6 (11731388_a_at) / Fold change /veh TMPRSS6 (11731388_a_at) / RFU KRTAP10-2 (11738614_at) / Fold change /veh KRTAP10-2 (11738614_at) / RFU ARHGAP8 /// PRR5-ARHGAP8 (11727945_x_at) / Fold change /veh ARHGAP8 /// PRR5-ARHGAP8 (11727945_x_at) / RFU KRTAP5-7 /// NADSYN1 (11734609_at) / Fold change /veh KRTAP5-7 /// NADSYN1 (11734609_at) / RFU RASL12 (11751679_a_at) / Fold change /veh RASL12 (11751679_a_at) / RFU CDKN2B (11736163_a_at) / Fold change /veh CDKN2B (11736163_a_at) / RFU PRF1 (11729649_at) / Fold change /veh PRF1 (11729649_at) / RFU, ZNF638 /// ZNF638-IT1 / Fold change vs veh, ZNF638 /// ZNF638-IT1 / RFU, PANK3 / Fold change vs veh, PANK3 / RFU, SH3YL1 / Fold change vs veh, SH3YL1 / RFU, ZEB2 / Fold change vs veh, ZEB2 / RFU, NRIP1 / Fold change vs veh, NRIP1 / RFU, PTTG1IP / Fold change vs veh, PTTG1IP / RFU, CAPN2 / Fold change vs veh, CAPN2 / RFU, MED14 / Fold change vs veh, MED14 / RFU, SNORA58 / Fold change vs veh, SNORA58 / RFU, C1orf63 / Fold change vs veh, C1orf63 / RFU, LRRFIP1 / Fold change vs veh, LRRFIP1 / RFU, NDUFAF7 / Fold change vs veh, NDUFAF7 / RFU, SLC12A2 / Fold change vs veh, SLC12A2 / RFU, IBTK / Fold change vs veh, IBTK / RFU, ESF1 / Fold change vs veh, ESF1 / Fold change vs veh, TMEM50B / RFU, TAOK1 / Fold change vs veh, TAOK1 / RFU, ACBD3 / Fold change vs veh, ACBD3 / RFU, TMA16 / Fold change vs veh, TMA16 / RFU, RWDD3 / Fold change vs veh, RWDD3 / RFU, BCAT1 / Fold change vs veh, BCAT1 / RFU, EDEM3 / Fold change vs veh, EDEM3 / RFU, TMEM33 / Fold change vs veh, TMEM33 / RFU, WDR75 / Fold change vs veh, WDR75 / RFU, AHCTF1 / Fold change vs veh, AHCTF1 / RFU, TFRC / Fold change vs veh, TFRC / RFU, ZDHHC17 / Fold change vs veh, ZDHHC17 / RFU, NOM1 / Fold change vs veh, NOM1 / RFU, ARL8B / Fold change vs veh, ARL8B / RFU, ZBTB11 / Fold change vs veh, ZBTB11 / RFU, TAMM41 / Fold change vs veh, TAMM41 / RFU, KIAA1704 /// LOC100996395 / Fold change vs veh, KIAA1704 /// LOC100996395 / RFU, ING1 / Fold change vs veh, ING1 / RFU, TRMT61B / Fold change vs veh, TRMT61B / RFU, FUBP3 / Fold change vs veh, FUBP3 / RFU, TP53 / Fold change vs veh, TP53 / RFU, TNKS2 / Fold change vs veh, TNKS2 / RFU, ZFP14 / Fold change vs veh, ZFP14 / RFU, ACTR2 / Fold change vs veh, ACTR2 / RFU, PPP3R1 / Fold change vs veh, PPP3R1 / RFU, PIK3R1 / Fold change vs veh, PIK3R1 / RFU, HNRNPA1 / Fold change vs veh, HNRNPA1 / RFU, RNF170 / Fold change vs veh, RNF170 / RFU, ZNF28 / Fold change vs veh, ZNF28 / RFU, RNGTT / Fold change vs veh, RNGTT / RFU, OGT / Fold change vs veh, OGT / RFU, BRD1 / Fold change vs veh, BRD1 / RFU, MARS / Fold change vs veh, MARS / RFU, ZNF655 / Fold change vs veh, ZNF655 / RFU, FAHD1 / Fold change vs veh, FAHD1 / RFU, BDP1 / Fold change vs veh, BDP1 / RFU, LRRCC1 / Fold change vs veh, LRRCC1 / RFU, ARID1A / Fold change vs veh, ARID1A / RFU, ZNF146 / Fold change vs veh, ZNF146 / RFU, ZNF330 / Fold change vs veh, ZNF330 / RFU, GPN3 / Fold change vs veh, GPN3 / RFU, C9orf123 / Fold change vs veh, C9orf123 / RFU, N4BP2L2 / Fold change vs veh, N4BP2L2 / RFU, ARFIP1 / Fold change vs veh, ARFIP1 / RFU, FAM179B / Fold change vs veh, FAM179B / RFU, BCL10 / Fold change vs veh, BCL10 / RFU, UHRF1BP1L / Fold change vs veh, UHRF1BP1L / RFU, BET1 / Fold change vs veh, BET1 / RFU, CNOT2 / Fold change vs veh, CNOT2 / RFU, ZNF268 / Fold change vs veh, ZNF268 / Fold change vs veh, ZNF507 / RFU, DGCR2 / Fold change vs veh, DGCR2 / RFU, WDSUB1 / Fold change vs veh, WDSUB1 / Fold change vs veh, HSP90B1 /// MIR3652 / RFU, ADSS / Fold change vs veh, ADSS / RFU, GK / Fold change vs veh, GK / RFU, ZNF148 / Fold change vs veh, ZNF148 / RFU, TAF9 / Fold change vs veh, TAF9 / RFU, SLC1A5 / Fold change vs veh, SLC1A5 / RFU, SLMO2 / Fold change vs veh, SLMO2 / RFU, ABCC4 / Fold change vs veh, ABCC4 / RFU, LOC101060439 /// RAP1B / Fold change vs veh, LOC101060439 /// RAP1B / RFU, RFX7 / Fold change vs veh, RFX7 / RFU, GTPBP10 / Fold change vs veh, GTPBP10 / RFU, CNEP1R1 / Fold change vs veh, CNEP1R1 / RFU, BIVM-ERCC5 /// ERCC5 / Fold change vs veh, BIVM-ERCC5 /// ERCC5 / RFU, ILF3 / Fold change vs veh, ILF3 / RFU 11762660_at / Fold change /veh 11762660_at / RFU VCAN (11757783_s_at) / Fold change /veh VCAN (11757783_s_at) / RFU DDX43 (11728927_at) / Fold change /veh DDX43 (11728927_at) / RFU KRT8 (11758188_x_at) / Fold change /veh KRT8 (11758188_x_at) / RFU NKD1 (11759106_at) / Fold change /veh NKD1 (11759106_at) / RFU SRD5A1 (11742802_a_at) / Fold change /veh SRD5A1 (11742802_a_at) / RFU TPSAB1 /// TPSB2 (11721975_s_at) / Fold change /veh TPSAB1 /// TPSB2 (11721975_s_at) / RFU GSTM3 (11746129_a_at) / Fold change /veh GSTM3 (11746129_a_at) / RFU IL23R (11737362_x_at) / Fold change /veh IL23R (11737362_x_at) / RFU TMEM51 (11727254_a_at) / Fold change /veh TMEM51 (11727254_a_at) / RFU PIWIL2 (11732686_x_at) / Fold change /veh PIWIL2 (11732686_x_at) / RFU ORM1 (11744905_x_at) / Fold change /veh ORM1 (11744905_x_at) / RFU CCDC152 (11743942_at) / Fold change /veh CCDC152 (11743942_at) / RFU ECM1 (11717891_a_at) / Fold change /veh ECM1 (11717891_a_at) / RFU IL23R (11748794_a_at) / Fold change /veh IL23R (11748794_a_at) / RFU TNFAIP8L3 (11732012_x_at) / Fold change /veh TNFAIP8L3 (11732012_x_at) / RFU MBOAT4 (11741988_at) / Fold change /veh MBOAT4 (11741988_at) / RFU 11764193_at / Fold change /veh 11764193_at / RFU TMEM53 (11763286_at) / Fold change /veh TMEM53 (11763286_at) / RFU MAGEB2 (11727129_at) / Fold change /veh MAGEB2 (11727129_at) / RFU TMEM200A (11744735_a_at) / Fold change /veh TMEM200A (11744735_a_at) / RFU CCDC152 (11751479_a_at) / Fold change /veh CCDC152 (11751479_a_at) / RFU FAM211A (11726209_a_at) / Fold change /veh FAM211A (11726209_a_at) / RFU RGS16 (11746705_a_at) / Fold change /veh RGS16 (11746705_a_at) / RFU VCAN (11755009_s_at) / Fold change /veh VCAN (11755009_s_at) / RFU RHOB (11743442_s_at) / Fold change /veh RHOB (11743442_s_at) / RFU RGS16 (11720943_a_at) / Fold change /veh RGS16 (11720943_a_at) / RFU RGS16 (11720944_at) / Fold change /veh RGS16 (11720944_at) / RFU, VPS4B / Fold change vs veh, VPS4B / RFU, CREB1 / Fold change vs veh, CREB1 / RFU, DNAJC13 / Fold change vs veh, DNAJC13 / RFU, GNAQ / Fold change vs veh, GNAQ / RFU, CDK5R1 / Fold change vs veh, CDK5R1 / RFU, ZRANB3 / Fold change vs veh, ZRANB3 / RFU, CUL4A / Fold change vs veh, CUL4A / RFU, CCNY / Fold change vs veh, CCNY / RFU, UFL1 / Fold change vs veh, UFL1 / RFU, COG3 / Fold change vs veh, COG3 / RFU, DIAPH2 / Fold change vs veh, DIAPH2 / RFU, SKA2 / Fold change vs veh, SKA2 / RFU, AFF3 / Fold change vs veh, AFF3 / RFU, LMF1 / Fold change vs veh, LMF1 / RFU, IPO11 / Fold change vs veh, IPO11 / RFU, DFFB / Fold change vs veh, DFFB / RFU, FOXP1 / Fold change vs veh, FOXP1 / RFU, CARD8 / Fold change vs veh, CARD8 / RFU, STRN3 / Fold change vs veh, STRN3 / RFU, ADK / Fold change vs veh, ADK / RFU, RASSF2 / Fold change vs veh, RASSF2 / RFU, WIPF1 / Fold change vs veh, WIPF1 / RFU, LARP1B / Fold change vs veh, LARP1B / RFU, RASA1 / Fold change vs veh, RASA1 / RFU, RB1 / Fold change vs veh, RB1 / RFU, PPFIA1 / Fold change vs veh, PPFIA1 / RFU, MAT2A / Fold change vs veh, MAT2A / RFU, CCT5 / Fold change vs veh, CCT5 / RFU, WDR92 / Fold change vs veh, WDR92 / RFU, CUX1 / Fold change vs veh, CUX1 / RFU, TTC7A / Fold change vs veh, TTC7A / RFU, TMEM135 / Fold change vs veh, TMEM135 / RFU, DEPTOR / Fold change vs veh, DEPTOR / RFU, CPM / Fold change vs veh, CPM / RFU, DNAJB6 / Fold change vs veh, DNAJB6 / RFU, CACNA2D3 / Fold change vs veh, CACNA2D3 / RFU, DTX4 / Fold change vs veh, DTX4 / RFU, TFCP2 / Fold change vs veh, TFCP2 / RFU, GMCL1 /// GMCL1P1 / Fold change vs veh, GMCL1 /// GMCL1P1 / RFU, AEBP2 / Fold change vs veh, AEBP2 / RFU, SNHG1 /// SNORD22 /// SNORD25 /// SNORD26 /// SNORD27 /// SNORD28 /// SNORD29 /// SNORD31 / Fold change vs veh, SNHG1 /// SNORD22 /// SNORD25 /// SNORD26 /// SNORD27 /// SNORD28 /// SNORD29 /// SNORD31 / Fold change (Aza/veh), C12orf56 (ProbeSet 11735607_a_at) / Fold change (ACY-1035/veh), C12orf56 (ProbeSet 11735607_a_at) / Fold change (Aza/veh), FGFR1OP (ProbeSet 11751329_s_at) / Fold change (ACY-1035/veh), FGFR1OP (ProbeSet 11751329_s_at) / Fold change (Aza/veh), VPS36 (ProbeSet 11739960_a_at) / Fold change (ACY-1035/veh), VPS36 (ProbeSet 11739960_a_at) / RFU SYPL1 (11715823_x_at) / Fold change /veh SYPL1 (11715823_x_at) / RFU IGFBP7 (11715501_s_at) / Fold change /veh IGFBP7 (11715501_s_at) / RFU REEP3 (11722064_at) / Fold change /veh REEP3 (11722064_at) / RFU IGLL1 (11728026_x_at) / Fold change /veh IGLL1 (11728026_x_at): dose or concentration left out as unconfirmed
Conditions: ProbeSet 11741070_a_at; LIST B

SMILES: Nc1ncn([C@@H]2O[C@H](CO)[C@@H](O)[C@H]2O)c(=O)n1 [azacitidine]
- RFU, ZNF146: 2051.58 RFU
